From patent US6066672A, “Amino compounds and angiotensin IV receptor agonists” (Taisho Pharmaceutical Co., Ltd., priority 1996, dated 2000)
Counter-ions that a name gives are not always drawn.

Target: T1, angiotensin IV receptor (Cavia porcellus, UniProt H0VNM7)
T1 construct: The Hartley guinea pig hippocampus was homogenized in a 50 mM Tris hydrochloride buffer solution; from tissue; host or cells: Hartley guinea pig hippocampus, crude membrane (48,000 x g precipitate)
T1 sequence (H0VNM7 1-1025): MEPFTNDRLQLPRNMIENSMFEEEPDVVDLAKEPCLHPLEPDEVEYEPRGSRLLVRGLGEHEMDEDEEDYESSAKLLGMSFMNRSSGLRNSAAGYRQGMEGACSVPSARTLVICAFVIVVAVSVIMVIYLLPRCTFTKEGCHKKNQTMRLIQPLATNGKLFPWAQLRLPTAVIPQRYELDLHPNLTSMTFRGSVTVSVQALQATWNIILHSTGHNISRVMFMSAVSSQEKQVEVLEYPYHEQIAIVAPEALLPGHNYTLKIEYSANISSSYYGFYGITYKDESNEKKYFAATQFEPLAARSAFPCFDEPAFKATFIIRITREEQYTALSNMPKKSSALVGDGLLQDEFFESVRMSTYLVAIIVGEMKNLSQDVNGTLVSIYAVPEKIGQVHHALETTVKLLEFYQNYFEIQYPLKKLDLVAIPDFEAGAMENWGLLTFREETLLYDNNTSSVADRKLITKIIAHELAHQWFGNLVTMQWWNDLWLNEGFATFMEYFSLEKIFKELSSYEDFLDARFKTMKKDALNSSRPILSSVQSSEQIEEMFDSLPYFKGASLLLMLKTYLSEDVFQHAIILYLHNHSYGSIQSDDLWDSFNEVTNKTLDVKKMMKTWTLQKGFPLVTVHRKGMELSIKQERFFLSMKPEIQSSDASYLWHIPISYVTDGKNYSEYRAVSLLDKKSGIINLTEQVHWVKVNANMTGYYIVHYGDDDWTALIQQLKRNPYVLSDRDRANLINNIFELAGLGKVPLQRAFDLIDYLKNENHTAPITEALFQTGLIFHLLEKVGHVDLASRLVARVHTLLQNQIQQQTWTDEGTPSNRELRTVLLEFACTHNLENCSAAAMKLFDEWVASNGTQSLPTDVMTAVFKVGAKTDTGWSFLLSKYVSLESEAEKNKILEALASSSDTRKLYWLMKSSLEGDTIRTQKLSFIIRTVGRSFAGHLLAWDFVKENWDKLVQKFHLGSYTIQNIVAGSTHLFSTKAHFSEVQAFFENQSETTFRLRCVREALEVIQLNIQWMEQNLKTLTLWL
Test: binding capability to angiotensin IV receptor, inhibition of 125I-angiotensin IV binding to guinea pig hippocampus membrane
Details: 0.2 nM 125I-angiotensin IV, Hartley guinea pig hippocampus crude membrane, 37° C., 90 minutes, pH 7.4
Experimental: The binding capability to angiotensin IV receptor was measured by using Hartley guinea pig hippocampus referring to the method described by Miller-Wing et al., J. Pharmacol. Exp. Ther., vol. 266, pp.1718 (1993). The Hartley guinea pig hippocampus was homogenized in a 50 mM Tris hydrochloride buffer solution (pH 7.4) containing 1 mM ethylenediamine-N,N,N',N'-tetraacetic acid (EDTA) and 100 μM phenylmethanesulfonyl fluoride (PMSF). After centrifugation at 900× g, the resulting supernatant was further centrifuged at 48,000× g. The precipitate was washed once with the same buffer solution and suspended in 50 mM Tris hydrochloride buffer solution (pH 7.4) containing 150 mM sodium chloride, 1 mM EDTA, 100 μM PMSF and 0.1% bovine serum albumin (BSA) to give a protein concentration of […] as a crude membrane specimen. […] The radioactivity on the filter paper was measured by using a gamma-counter. The non-specific bond was measured in the presence of 1 μM angiotensin IV, and the specific bond was calculated by subtracting the non-specific bond from the total bond.

`CCCC[C@H](N)CN[C@@H](Cc1ccc(O)cc1)C(=O)N[C@H](/C=C/c1ccc(C(=O)OC)cc1)CC(C)C` [Example 11, N'-[(S)-2-aminohexyl]-N-[(S)-(E)-3-(4-methoxycarbonylphenyl)-1-(2-methylpropyl)-2-propenyl]-L-tyrosinamide dihydrochloride] and `CCCC[C@H](N)CN[C@@H](Cc1ccc(O)cc1)C(=O)N[C@H](/C=C/c1ccc(C(=O)O)cc1)CC(C)C` [Example 13, N'-[(S)-2-aminohexyl]-N-[(S)-(E)-3-(4-carboxyphenyl)-1-(2-methylpropyl)-2-propenyl]-L-tyrosinamide dihydrochloride] are within 1.5-fold of each other in IC50: 1.23 nM for the first, 1.79 nM for the second.

Going from `CCCC[C@H](N)CN[C@@H](Cc1ccc(O)cc1)C(=O)N[C@@H](/C=C/c1ccncc1)CC(C)C` [Example 9, N'-[(S)-2-aminohexyl]-N-[(R)-(E)-1-(2-methylpropyl)-3-(4-pyridyl)-2-propenyl]-L-tyrosinamide trihydrochloride] to `CCCC[C@H](N)CN[C@@H](Cc1ccc(O)cc1)C(=O)N[C@H](/C=C/c1ccccc1)CC(C)C` [Example 17, N'-[(S)-2-aminohexyl]-N-[(S)-(E)-1-(2-methylpropyl)-3-phenyl-2-propenyl]-L-tyrosinamide dihydrochloride], the IC50 falls from 22.1 nM to 0.65 nM (34-fold).

First: CCCC[C@H](N)CN[C@@H](Cc1ccc(O)cc1)C(=O)N[C@H](CCc1ccc(C)cc1)[C@@H](C)CC [Example 2, N'-[(S)-2-aminohexyl]-N-[(1R,2S)-2-methyl-1-[2-(4-methylphenyl)ethyl]butyl]-L-tyrosinamide dihydrochloride]
Second: CCCC[C@H](N)CN[C@@H](Cc1ccc(O)cc1)C(=O)N[C@H](/C=C/c1ccc(C)cc1)[C@@H](C)CC [Example 1, N'-[(S)-2-aminohexyl]-N-[(S)-(E)-3-(4-methylphenyl)-1-[(S)-1-methylpropyl]-2-propenyl]-L-tyrosinamide dihydrochloride]
The IC50 of the first is 7-fold higher: 4.13 nM for the first, 0.59 nM for the second.

`CCC/C=C\[C@@H](NC(=O)[C@H](Cc1ccc(O)cc1)NC[C@@H](N)CCCC)[C@@H](C)CC` [Example 3, N'-[(S)-2-aminohexyl]-N-[(S)-(Z)-1-[(S)-1-methylpropyl]-2-hexenyl]-L-tyrosinamide dihydrochloride] and `CCCCC[C@@H](NC(=O)[C@H](Cc1ccc(O)cc1)NC[C@@H](N)CCCC)[C@@H](C)CC` [Example 4, N'-[(S)-2-aminohexyl]-N-[(R)-1-[(S)-1-methylpropyl]hexyl]-L-tyrosinamide dihydrochloride] are within 1.5-fold of each other in IC50: 12.6 nM for the first, 11.5 nM for the second.

`CCCC[C@H](N)CN[C@@H](Cc1ccc(O)cc1)C(=O)N[C@H](CCc1ccc2ccccc2n1)CC(C)C` [Example 24, N'-[(S)-2-aminohexyl]-N-[(R)-3-methyl-1-[2-(2-quinolyl)ethyl]butyl]-L-tyrosinamide dihydrochloride] and `CCCC[C@H](N)CN[C@@H](Cc1ccc(O)cc1)C(=O)N[C@H](CCc1cccc2ccccc12)CC(C)C` [Example 16, N'-[(S)-2-aminohexyl]-N-[(R)-3-methyl-1-[2-(1-naphthyl)ethyl]butyl]-L-tyrosinamide dihydrochloride] are within 1.5-fold of each other in IC50: 3.77 nM for the first, 3.43 nM for the second.

`CCCC[C@H](N)CN[C@@H](Cc1ccc(O)cc1)C(=O)N[C@H](CCc1ccc(C(=O)O)cc1)CC(C)C` [Example 14, N'-[(S)-2-aminohexyl]-N-[(R)-3-methyl-1-[2-(4-carboxyphenyl)ethyl]butyl]-L-tyrosinamide dihydrochloride] and `CCCC[C@H](N)CN[C@@H](Cc1ccc(O)cc1)C(=O)N[C@H](CCc1ccc(C(=O)OC)cc1)CC(C)C` [Example 12, N'-[(S)-2-aminohexyl]-N-[(R)-1-[2-(4-methoxycarbonylphenyl)ethyl]-3-methylbutyl]-L-tyrosinamide dihydrochloride] are within 1.5-fold of each other in IC50: 26.6 nM for the first, 35.1 nM for the second.

Compared with `CCCC[C@H](N)CN[C@@H](Cc1ccc(O)cc1)C(=O)N[C@H](CCCc1ccccc1)CC(C)C` [Example 6, N'-[(S)-2-aminohexyl]-N-[(R)-3-methyl-1-(3-phenylpropyl)butyl]-L-tyrosinamide dihydrochloride], `CCCC[C@H](N)C(=O)N[C@H](CN[C@H](CCc1ccccc1)CC(C)C)Cc1ccc(O)cc1` [Example 28, N-[1-[(S)-[(4-hydroxyphenyl)methyl]]-2-[[(R)-3-methyl-1-(2-phenylethyl)butyl]amino]ethyl]-L-norleucinamide dihydrochloride] is 16-fold higher in IC50: 18.3 nM for the first, 299 nM for the second.

Compared with `CCCC[C@H](N)C(=O)N[C@H](CN[C@H](/C=C/c1ccccc1)CC(C)C)Cc1ccc(O)cc1` [Example 27, N-[(S)-1-[(4-hydroxyphenyl)methyl]-2-[(S)-(E)-[1-(2-methylpropyl)-3-phenyl-2-propenyl]amino]ethyl]-L-norleucinamide dihydrochloride], `CCCC[C@H](N)CN[C@H](CN[C@H](/C=C/c1ccccc1)CC(C)C)Cc1ccc(O)cc1` [Example 29, (S)-(E)-N-[(S)-2-[[(S)-2-aminohexyl]amino]-3-(4-hydroxyphenyl)propyl]-5-methyl-1-phenyl-1-hexen-3-amine trihydrochloride] is 14-fold lower in IC50: 328 nM for the first, 24.2 nM for the second.

First: CCCC[C@H](N)CN[C@@H](Cc1ccc(O)cc1)C(=O)N[C@H](/C=C/c1cccc2ccccc12)CC(C)C [Example 15, N'-[(S)-2-aminohexyl]-N-[(S)-(E)-1-(2-methylpropyl)-3-(1-naphthyl)-2-propenyl]-L-tyrosinamide dihydrochloride]
Second: CCCC[C@H](N)CN[C@@H](Cc1ccc(O)cc1)C(=O)N[C@H](/C=C/c1ccc2ccccc2n1)CC(C)C [Example 23, N'-[(S)-2-aminohexyl]-N-[(S)-(E)-3-(2-quinolyl)-1-(2-methylpropyl)-2-propenyl]-L-tyrosinamide trihydrochloride]
The IC50 of the first is 7.1-fold higher: 3.76 nM for the first, 0.53 nM for the second.

`CCCC[C@H](N)CN[C@@H](Cc1ccc(O)cc1)C(=O)N[C@H](/C=C\Cc1ccccc1)CC(C)C` [Example 5, N'-[(S)-2-aminohexyl]-N-[(S)-(Z)-1-(2-methylpropyl)-4-phenyl-2-butenyl]-L-tyrosinamide dihydrochloride] and `CCCC[C@H](N)CN[C@@H](Cc1ccc(O)cc1)C(=O)N[C@H](/C=C\c1ccc(Cl)cc1)CC(C)C` [Example 20, N'-[(S)-2-aminohexyl]-N-[(S)-(Z)-3-(4-chlorophenyl)-1-(2-methylpropyl)-2-propenyl]-L-tyrosinamide dihydrochloride] are within 1.5-fold of each other in IC50: 7.22 nM for the first, 5.46 nM for the second.

First: CCCC[C@H](N)CN[C@H](CN[C@H](CCc1ccccc1)CC(C)C)Cc1ccc(O)cc1 [Example 30, (R)-N-[(S)-2-[[(S)-2-aminohexyl]amino]-3-(4-hydroxyphenyl)propyl]-5-methyl-1-phenylhexan-3-amine trihydrochloride]
Second: CCCC[C@H](N)CN[C@@H](Cc1ccc(O)cc1)C(=O)N[C@H](CCc1ccncc1)CC(C)C [Example 8, N'-[(S)-2-aminohexyl]-N-[(R)-3-methyl-1-[2-(4-pyridyl)ethyl]butyl]-L-tyrosinamide trihydrochloride]
The IC50 of the first is 11-fold higher: 171 nM for the first, 15.2 nM for the second. The second is the more potent here.

Going from `CCCC[C@H](N)CN[C@H](CN[C@H](C(=O)OC)[C@@H](C)CC)Cc1ccc(O)cc1` [Example 31, N-[(S)-2-[[(S)-2-aminohexyl]amino]-3-(4-hydroxyphenyl)propyl]-L-isoleucinemethyl ester trihydrochloride] to `C=C[C@H](CC(C)C)NC(=O)[C@H](Cc1ccc(O)cc1)NC[C@@H](N)CCCC` [Example 25, N'-[(S)-2-aminohexyl]-N-[(S)-1-(2-methylpropyl)-2-propenyl]-L-tyrosinamidedihydrochloride], the IC50 rises from 32 nM to 89 nM (2.8-fold). The first is the more potent here.

`CCCC[C@H](N)CN[C@@H](Cc1ccc(O)cc1)C(=O)N[C@H](CCc1ccc(-c2ccccc2)cc1)CC(C)C` [Example 22, N'-[(S)-2-aminohexyl]-N-[(R)-1-[2-([1,1'-biphenyl]-4-yl)ethyl]-3-methylbutyl]-L-tyrosinamide dihydrochloride] showed an IC50 of 89 nM.
